Columns and labels:
D(3) dopamine receptor [1] = molecular target: T1, D(3) dopamine receptor (Homo sapiens, UniProt P35462); assay: Agonist activity at dopamine D3 receptor in human U2OS-D3 cells assessed as EA-tagged beta-arrestin translocation after 1.5 hrs by luminescence based beta-galactosidase assay
D(3) dopamine receptor [2] = molecular target: T1, D(3) dopamine receptor; assay: Displacement of [3H]-N-methylspiperone from human dopamine D3 receptor expressed in HEK293 cells after 30 mins by scintillation counting
D(2) dopamine receptor = D(2) dopamine receptor (Homo sapiens, UniProt P14416); assay: Displacement of [3H]-N-methylspiperone from human dopamine D2long receptor expressed in HEK293 cells after 30 mins by scintillation counting
Sequence of D(2) dopamine receptor (P14416 whole entry): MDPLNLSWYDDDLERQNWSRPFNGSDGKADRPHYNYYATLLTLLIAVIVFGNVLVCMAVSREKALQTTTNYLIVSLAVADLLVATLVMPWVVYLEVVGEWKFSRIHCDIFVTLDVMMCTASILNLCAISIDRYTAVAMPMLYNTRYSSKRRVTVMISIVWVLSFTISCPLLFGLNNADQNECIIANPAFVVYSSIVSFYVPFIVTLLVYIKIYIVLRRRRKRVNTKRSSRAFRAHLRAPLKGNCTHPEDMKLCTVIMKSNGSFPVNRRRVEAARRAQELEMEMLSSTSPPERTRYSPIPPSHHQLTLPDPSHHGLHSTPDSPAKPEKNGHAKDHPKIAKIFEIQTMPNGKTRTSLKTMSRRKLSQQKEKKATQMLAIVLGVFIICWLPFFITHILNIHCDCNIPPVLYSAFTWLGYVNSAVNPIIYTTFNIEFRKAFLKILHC

T1 sequence (P35462 as listed by the source): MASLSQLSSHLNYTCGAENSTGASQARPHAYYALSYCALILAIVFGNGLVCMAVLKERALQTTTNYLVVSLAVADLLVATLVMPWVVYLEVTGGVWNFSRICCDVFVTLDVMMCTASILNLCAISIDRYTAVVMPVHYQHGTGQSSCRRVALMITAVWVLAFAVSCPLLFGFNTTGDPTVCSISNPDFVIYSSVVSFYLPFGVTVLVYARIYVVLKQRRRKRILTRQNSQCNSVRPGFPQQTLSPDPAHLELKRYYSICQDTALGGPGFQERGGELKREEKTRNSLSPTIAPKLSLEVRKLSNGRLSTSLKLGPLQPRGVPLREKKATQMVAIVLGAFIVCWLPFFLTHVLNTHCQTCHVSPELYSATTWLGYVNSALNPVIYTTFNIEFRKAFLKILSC

With `CCCN1C[C@H](c2ccc(O)cc2)C[C@@H]2c3cc(O)c(O)cc3CC[C@H]21` the EC50 (D(3) dopamine receptor [1]) was 46 nM, the Ki (D(3) dopamine receptor [2]) was 1.1 nM and the Ki (D(2) dopamine receptor) was 160 nM.
